Reference: publication PMC8394356 (Biomedicines, 2021)
Counter-ions that a name gives are not always drawn. Like-named read-outs stand apart in the source and are kept apart here.

Key:
Aβ (1-42) peptide = biological target: T1, Aβ (1-42) peptide (Homo sapiens, UniProt P05067); assay: Inhibition of Aβ (1-42) aggregation in vitro (ThT fluorescent assay); assay type: biochemical; settings: for inhibition at 10 µM: read-out: inhibition of Aβ aggregation
T1 construct: the synthetic Aβ (1-42) peptide was weighed in an Eppendorf tube; purchased Kelowna International Scientific Inc; host or cells: synthetic peptide
Protocol: The ThT fluorescent assay was used to monitor the isolated compounds from the TT-hull on inhibition of Aβ (1-42) peptide aggregations. For the preparation of the Aβ stock film, the synthetic Aβ (1-42) peptide was weighed in an Eppendorf tube and dissolved in HFIP to prepare a 1 mM stock solution; then, HFIP solvent was evaporated to form the Aβ (1-42) film. The stock film was dissolved in 100 μL of 60 mM NaOH, and further diluted with 50 mM phosphate buffer (pH7.4, containing 150 mM sodium chloride, 1 mM EDTA, and 0.02% sodium azide). The 125 μL working solution contained 10 μM Aβ (1-42) peptide, purified compounds (10, 20, and 40 μM in DMSO), and 10 μM ThT solution, which was gently shaken at 37 °C for 24 h. The mixture without the sample additions was the control. The fluorescence ratios of Ex440nm/Em486nm were recorded at a time of 0 h and 24 h, and changes in fluorescence over a 24 h period were expressed as ΔE. The inhibition of Aβ aggregation (%) was calculated as [(ΔEcontrol−ΔEsample)/(ΔEcontrol)] × 100%.

recombinant human AChE = biological target: T2, recombinant human AChE (Homo sapiens, UniProt P22303); assay: biochemical; settings: for IC50: isolated compounds from TT-hull-50EE, recombinant human AChE
T2 construct: purchased R&D Systems Inc. 7574-CE
Protocol: The acetylthiocholine iodide and DTNB were used for in vitro AChE inhibitory activity assays following the previous report. […] An equal volume of DMSO instead of the sample solution was used as a blank and expressed as 100% AChE activity. The absorbance changes were recorded at 405 nm for 10 min. The AChE inhibition (%) was calculated as follows: [(A405blank−A405sample)/(A405blank)] × 100%.

[1] = Oxygen radical absorbance capacity (ORAC), OxiSelect Assay Kit; settings: for ORAC activities relative to those of Trolox / ORAC activities, fold higher than those of Trolox: compound at 10 μM; for ORAC activities relative to those of Trolox: % of Trolox; for ORAC values: compound at a concentration of 10 μM
Protocol: The antioxidant index of free radical scavenging activities of the extracts (1.5 or 2.5 μg/mL) and purified compounds (10 μM) of TT-hull were determined by a commercial OxiSelect™ Assay Kit for oxygen radical absorbance capacity (ORAC) determination. The standard curve of ORAC was plotted using different concentrations of water-soluble vitamin E analog (the compound’s name was Trolox, 6-hydroxy-2,5,7,8-tetramethylchroman-2-carboxylic acid) at 2.5, 5, 10, 20, 40, and 60 μM. Therefore, the ORAC activities of TT-hull extracts or purified compounds were calculated equivalently to the Trolox effects and expressed as Trolox equivalents (μM).

[2] = tested on: scopolamine-induced amnesiac mice; settings: 10 mg/kg, with or without nanoparticle-delivered formulation; cited from earlier work
[3] = tested on: scopolamine-induced amnesiac ICR mice; assay: Passive avoidance test in scopolamine-induced amnesiac ICR mice; assay type: in vivo; settings: scopolamine 1 mg/kg i.p.
Protocol: The oral administration of TT-hull extracts or purified compounds in scopolamine-induced amnesiac ICR mice was performed according to the previous report, with some modifications. The 8-week-old male ICR mice were purchased from the Laboratory Animal Center, College of Medicine, National Taiwan University (Taipei, Taiwan). Normal diets (Prolab® RMH2500, Jefferson City, MO, USA) and water were provided during the animal experiments. All animal experimental protocols were approved by the Institutional Animal Care and Use Committee of Taipei Medical University (LAC-2016-0275). After one week of acclimation, for treatments of TT-hull extracts to test prevention, the mice were randomly divided into seven groups (6 heads/group), including the blank, the control, the donepezil-positive control, and the four extract-administered groups. […] Except for the blank group, the mice in each group were intraperitoneally injected with scopolamine (1 mg/kg) 30 min after the oral sample administration, and the mice in the blank group were injected with an equal volume of PBS. After being injected with scopolamine or PBS for another 30 min, each mouse was evaluated by a passive avoidance test at day 13 to day 14 and by the Morris water maze from day 17 to day 19. At the end of the experiments at day 20, the mice were sacrificed. For oral administration of purified compounds to test prevention, the ICR mice were pre-administered orally with TT-1 (100 mg/kg, 200 mg/kg) or TT-2 (300 mg/kg) once a day by gavage from day 1 to day 5; […]. From day 6 to day 11, the procedure was the same for the oral administration of the TT-hull extracts. Each mouse was evaluated by a passive avoidance test at day 6 to day 7 and by the Morris water maze from day 8 to day 10. […]
The passive avoidance test and Morris water maze were used to evaluate the learning and memory functions of scopolamine-treated mice after the treatments with TT-hull extracts or purified compounds, by following the previous report. […] The time for which each mouse stayed in the light box (step-through latency of the acquisition trial, sec) was recorded. […] On the second day of the passive avoidance test (as the retention trial), the same protocol was performed, except that there were no electric foot shocks in the dark box, and the time for which each mouse stayed in the light box (step-through latency of the retention trial) was recorded. […] For the second training procedure of the third day (as the reference memory task), the time required for the mouse to find and climb onto the platform from the starting point was recorded as the latency (sec). The platform was then removed (as the probe test), and the swimming time and crossing time in the platform quadrant were recorded for each mouse.

[4] = cited from earlier work
[5] = tested on: reduced form GSH contents in brain extracts; assay: Reduced GSH levels in brain tissue extracts of treated mice; assay type: in vivo; settings: oral TT-1 200 mg/kg, donepezil 5 mg/kg; scopolamine-induced amnesiac mice
Protocol: (§1) At the end of the TT-1 and TT-2 treatments, mice were sacrificed, and the whole brain of each ICR mouse was isolated and immediately stored at −80 °C for the measurement of residual AChE activity and the reduced GSH levels. The whole brain of each mouse was ground into powder by means of a mortar and pestle in liquid nitrogen and then extracted by adding 1 mL of 100 mM phosphate buffer (pH 7.5) to the ice bath. […] The residual AChE activity of each brain extract was expressed as [A405sample−A405sample blank]/μg protein.

[6] = biological target: T3, AChE activity in brain extracts (Mus musculus, UniProt P21836); assay type: in vivo; settings: oral TT-1 200 mg/kg, donepezil 5 mg/kg; scopolamine-induced amnesiac mice
T3 construct: from tissue; host or cells: whole brain of ICR mice
Protocol: as §1

[7] = tested on: scopolamine-induced amnesiac ICR mice; assay: Morris water maze in scopolamine-induced amnesiac ICR mice; assay type: in vivo; settings: donepezil 5 mg/kg, scopolamine 1 mg/kg i.p.
Protocol: The oral administration of TT-hull extracts or purified compounds in scopolamine-induced amnesiac ICR mice was performed according to the previous report, with some modifications. The 8-week-old male ICR mice were purchased from the Laboratory Animal Center, College of Medicine, National Taiwan University (Taipei, Taiwan). Normal diets (Prolab® RMH2500, Jefferson City, MO, USA) and water were provided during the animal experiments. All animal experimental protocols were approved by the Institutional Animal Care and Use Committee of Taipei Medical University (LAC-2016-0275). After one week of acclimation, for treatments of TT-hull extracts to test prevention, the mice were randomly divided into seven groups (6 heads/group), including the blank, the control, the donepezil-positive control, and the four extract-administered groups. […] Except for the blank group, the mice in each group were intraperitoneally injected with scopolamine (1 mg/kg) 30 min after the oral sample administration, and the mice in the blank group were injected with an equal volume of PBS. After being injected with scopolamine or PBS for another 30 min, each mouse was evaluated by a passive avoidance test at day 13 to day 14 and by the Morris water maze from day 17 to day 19. At the end of the experiments at day 20, the mice were sacrificed. For oral administration of purified compounds to test prevention, the ICR mice were pre-administered orally with TT-1 (100 mg/kg, 200 mg/kg) or TT-2 (300 mg/kg) once a day by gavage from day 1 to day 5; […]. From day 6 to day 11, the procedure was the same for the oral administration of the TT-hull extracts. Each mouse was evaluated by a passive avoidance test at day 6 to day 7 and by the Morris water maze from day 8 to day 10. At the end of the experiments at day 11, the mice were sacrificed, and the brain tissue was isolated and stored at −80 °C for further measurements.
The passive avoidance test and Morris water maze were used to evaluate the learning and memory functions of scopolamine-treated mice after the treatments with TT-hull extracts or purified compounds, by following the previous report. The apparatus of the passive avoidance test included a light box and a dark box separated by a guillotine door in a shuttle chamber (AccuScan Instruments Inc, Columbus, OH, USA), and a wired metal floor was placed in the dark box to provide electric foot shocks during the acquisition trial. On the first day of the passive avoidance test (as the acquisition trial), each mouse was acclimatized to the shuttle chamber for 30 min, and then placed in the light box. The mouse entered the dark box, the guillotine door was immediately closed, and, at the same time, an electric shock (0.3 mA) was delivered for 3 sec to the mouse via the wired metal floor. The time for which each mouse stayed in the light box (step-through latency of the acquisition trial, sec) was recorded. […] On the second day of the passive avoidance test (as the retention trial), the same protocol was performed, except that there were no electric foot shocks in the dark box, and the time for which each mouse stayed in the light box (step-through latency of the retention trial) was recorded. For the Morris water maze evaluations, a three-successive-day training protocol was performed; each mouse was trained for 1 min to find and climb onto the platform twice a day at 30 min intervals. For the second training procedure of the third day (as the reference memory task), the time required for the mouse to find and climb onto the platform from the starting point was recorded as the latency (sec). The platform was then removed (as the probe test), and the swimming time and crossing time in the platform quadrant were recorded for each mouse.

[8] = 1:2 ratio of Aβ to compound, 10 μM to 20 μM, 37 °C, 24 h
[9] = 1:4 ratio of Aβ to compound, 10 μM to 40 μM, 37 °C, 24 h
[10] = read-out: IC50 of AChE inhibitory activity
[11] = 1:1 ratio of Aβ to compound, 10 μM:10 μM, 37 °C, 24 h
[12] = IC50 of AChE inhibitory activity
[13] = purified compound experiment, oral TT-1 100 and 200 mg/kg, TT-2 300 mg/kg, donepezil 5 mg/kg
[14] = purified compound experiment, oral TT-1 200 mg/kg
[15] = extract experiment, oral 50EE or HWE 100 and 200 mg/kg

T2 sequence (P22303 32-614): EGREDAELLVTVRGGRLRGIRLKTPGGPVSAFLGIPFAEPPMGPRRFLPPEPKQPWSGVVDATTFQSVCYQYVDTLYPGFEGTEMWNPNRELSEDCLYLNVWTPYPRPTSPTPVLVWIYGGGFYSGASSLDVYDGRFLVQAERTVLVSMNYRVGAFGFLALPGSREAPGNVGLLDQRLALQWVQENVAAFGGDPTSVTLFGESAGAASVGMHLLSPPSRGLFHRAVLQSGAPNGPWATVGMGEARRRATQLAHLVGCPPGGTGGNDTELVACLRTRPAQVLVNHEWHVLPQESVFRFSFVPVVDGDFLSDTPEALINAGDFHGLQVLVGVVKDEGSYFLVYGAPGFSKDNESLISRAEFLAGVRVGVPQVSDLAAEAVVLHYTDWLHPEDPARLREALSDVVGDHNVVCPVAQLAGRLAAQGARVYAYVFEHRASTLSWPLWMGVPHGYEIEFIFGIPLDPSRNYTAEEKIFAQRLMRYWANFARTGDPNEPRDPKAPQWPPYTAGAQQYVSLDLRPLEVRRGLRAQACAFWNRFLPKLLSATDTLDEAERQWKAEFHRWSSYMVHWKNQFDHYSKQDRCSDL
T1 sequence (P05067 672-713): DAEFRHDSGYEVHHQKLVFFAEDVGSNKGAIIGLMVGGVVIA
T3 sequence (P21836 32-614): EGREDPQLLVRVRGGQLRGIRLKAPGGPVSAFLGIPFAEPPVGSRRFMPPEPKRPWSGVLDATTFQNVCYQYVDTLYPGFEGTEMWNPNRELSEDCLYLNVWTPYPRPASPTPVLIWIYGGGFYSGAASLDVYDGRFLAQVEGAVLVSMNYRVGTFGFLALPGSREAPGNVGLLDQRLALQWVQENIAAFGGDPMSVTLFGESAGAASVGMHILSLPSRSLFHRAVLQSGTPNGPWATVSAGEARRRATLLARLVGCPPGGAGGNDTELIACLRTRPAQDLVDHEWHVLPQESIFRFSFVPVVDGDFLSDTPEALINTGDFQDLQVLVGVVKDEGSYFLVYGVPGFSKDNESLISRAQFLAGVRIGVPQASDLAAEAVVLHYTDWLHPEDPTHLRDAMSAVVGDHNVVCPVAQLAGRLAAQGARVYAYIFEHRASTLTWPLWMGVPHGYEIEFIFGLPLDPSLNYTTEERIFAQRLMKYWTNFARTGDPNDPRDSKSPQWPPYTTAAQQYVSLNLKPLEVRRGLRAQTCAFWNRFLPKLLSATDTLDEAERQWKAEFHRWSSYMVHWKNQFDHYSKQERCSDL

| Compound | inhibition of Aβ aggregation (Aβ (1-42) peptide; [8]) | inhibition of Aβ aggregation (Aβ (1-42) peptide; [9]) | IC50 (recombinant human AChE; [10]) | ORAC values [1] | inhibition at 10 µM (Aβ (1-42) peptide; [11]) | ORAC activities, fold higher than those of Trolox [1] | step-through latency in the retention trial vs control [3, 13] | other results |
| --- | --- | --- | --- | --- | --- | --- | --- | --- |
| O=C(O[C@H]1[C@@H]2OC(=O)c3cc(O)c(O)c(O)c3-c3c(cc(O)c(O)c3O)C(=O)OC[C@H]2OC(O)[C@@H]1OC(=O)c1cc(O)c(O)c(O)c1)c1cc(O)c(O)c(O)c1 (some centres unmarked) [TT-8, tellimagrandin I] | 97.13% | 100% | 18.4 µM | 7.5 μM Trolox equivalents |  |  |  | inhibition at 10 µM (Aβ (1-42) peptide): 66.6%; ORAC activities relative to those of Trolox [1]: 75% |
| O=C(O)c1cc(O)c(O)c(O)c1 [TT-6, gallic acid] | 77.73% | 88.19% |  | 23.7 μM Trolox equivalents | 37.2% | 2.4 fold |  | learning behavior functions in the probe test of the Morris water maze [2]: showed improved learning behavior functions; IC50 (recombinant human AChE; [12]): 246 µM |
| O=C(OC1O[C@@H]2COC(=O)c3cc(O)c(O)c(O)c3-c3c(cc(O)c(O)c3O)C(=O)O[C@H]2[C@H](OC(=O)c2cc(O)c(O)c(O)c2)[C@H]1OC(=O)c1cc(O)c(O)c(O)c1)c1cc(O)c(O)c(O)c1 (some centres unmarked) [TT-1, Tellimagrandin II] | 100% | 100% |  | 5.1 μM Trolox equivalents | 75.8% |  | showed longer step-through latency | remaining contents ([4]; acidic buffers (pH 2 or pH 4) and simulated gastric fluids (pH 1.2)): higher than 90%; residual content ([4]; simulated intestinal fluids (pH 7.5) at 37 °C for 9 h): 31.40%; reduced form GSH contents in brain extracts vs control [5]: higher reduced form GSH contents; AChE activity in brain extracts vs control [6]: lower AChE activity; IC50 (recombinant human AChE; [12]): 18.6 µM; ORAC activities relative to those of Trolox [1]: 50%; crossing numbers in the target quadrant, probe test, vs control [7, 14]: higher crossing numbers in the target quadrant; time spent in the target quadrant, probe test, vs control [7, 14]: longer time spent in the target quadrant |
| COc1cc2c(cc1OC)C(=O)C(CC1CCN(Cc3ccccc3)CC1)C2 (centres unmarked) [donepezil, donepezil hydrochloride] |  |  |  |  |  |  | showed longer step-through latency | step-through latency in the retention trial vs control ([3]; extract experiment, oral 50EE or HWE 100 and 200 mg/kg daily day 1-20, donepezil 5 mg/kg day 11-20): remained for a longer period of time in the light box; crossing numbers in the target quadrant, probe test, vs control [7, 15]: higher crossing numbers in the target quadrant; time spent in the target quadrant, probe test, vs control [7, 15]: spent more time in the target quadrant; crossing numbers in the target quadrant, probe test, vs control [7, 14]: higher crossing numbers in the target quadrant; time spent in the target quadrant, probe test, vs control [7, 14]: longer time spent in the target quadrant |
| O=C(OC[C@H]1O[C@@H](OC(=O)c2cc(O)c(O)c(O)c2)[C@H](OC(=O)c2cc(O)c(O)c(O)c2)[C@@H](OC(=O)c2cc(O)c(O)c(O)c2)[C@@H]1O)c1cc(O)c(O)c(O)c1 [TT-2, 1,2,3,6-tetra-O-galloyl-β-D-glucopyranoside] | 88.08% |  | 84.2 µM | 18.7 μM Trolox equivalents | 58.5% | close to two-fold higher | no significant differences (p > 0.05) |  |
| O=C(O[C@@H]1O[C@H](CO)[C@@H](O)[C@H](OC(=O)c2cc(O)c(O)c(O)c2)[C@H]1OC(=O)c1cc(O)c(O)c(O)c1)c1cc(O)c(O)c(O)c1 [TT-3, 1,2,3-tri-O-galloyl-β-D-glucopyranoside] | 92.44% |  | 371 µM | 15.1 μM Trolox equivalents | 42.7% | close to two-fold higher |  |  |
| O=C(OC[C@H]1O[C@@H](OC(=O)c2cc(O)c(O)c(O)c2)[C@H](OC(=O)c2cc(O)c(O)c(O)c2)[C@@H](O)[C@@H]1O)c1cc(O)c(O)c(O)c1 [TT-4, 1,2,6-tri-O-galloyl-β-D-glucopyranoside] | 86.82% | 100% | > 800 µM | 18.1 μM Trolox equivalents | 54.6% | close to two-fold higher |  | inhibition at 800 µM (recombinant human AChE; at concentration of 800 μM): < 50% |
